Laboratory results as given in US5322842A, “Tricyclic benzodiazepine derivates, their preparation, and pharmaceutical compositions containing them” (Fujisawa Pharmaceutical Co., Ltd., priority 1990, dated 1994).

Test system: CCK receptor (rat pancreatic membranes)
Experiment: [125I] CCK-8 binding to rat pancreatic membranes
Conditions: test compound 1×10^-8 M, 50 pM 125I-CCK-8, 30 min, 37° C.
Description: [^125 I ] CCK-8 binding to rat pancreatic membranes
Rats were killed by a blow on the head and bled to death. Whole pancreas (about 0.7 g) was removed, minced in a small quantity of 50 mM Tris-HCl buffer (pH 7.4), and homogenized in 30 vol: of the buffer by a polytron homogenizer. The homogenate was centrifuged at 30000×g (16000 rpm) for 10 min. The pellet was then resuspended in the same buffer by a glass-teflon homogenizer and recentrifuged at 30000×g for 10 min. This procedure (washings) was repeated twice more. The final pellet (membrane) was suspended in incubation medium (see below) so as to obtain a final protein concentration of 2 mg/ml. All manipulations were done at 0°-4° C.
(ii) Receptor binding assay
The composition of incubation medium was as follows: 50 mM Tris-HCl (pH 7.4), 5 mM MgCl2, 5 mM dithiothreitol (DTT), 0.14 mg/ml bacitracin, and 0.2% bovine serum albumin (BSA). Freshly prepared membranes (200 μg protein) were incubated for 30 min under shaking at 37° C. in plastic tubes in 500 μl of incubation medium with 50 pM ^125 I-CCK-8 in the presence or absence of test compound (1×10^-8 M). To determine the non-specific binding, CCK-8 at 1 μM was added. […] After washing the filter with 50 mM Tris-HCl (pH 7.4) buffer containing 0.1% BSA, the radioactivity of the filter was counted. […] The effect of test compound was expressed as % inhibition of specific ^125 I-CCK-8 binding.

## CN1CCN2C(=O)C(NC(=O)c3cc4ccccc4[nH]3)N=C(c3ccccc3F)c3cccc1c32 (racemic) [Example 2, (6RS)-1-methyl-5-oxo-6-(2-indolylcarbonylamino)-8-(2-fluorophenyl)-2,3,5,6-tetrahydro-1H-[1,4]diazepino-[1,7,6-de]quinoxaline]
  Inhibition (%) of specific 125I-CCK-8 binding: 95.7%
